Source: patent US9999704B2, “Amphiphilic degradable polymers for immobilization and sustained delivery of biomolecules” (University of Massachusetts, priority 2014, dated 2018)

System: Human umbilical vein endothelial cells (HUVECs)
Experiment: HUVEC-Matrigel tube formation assay
Type: cell-based
Conditions: free S1P solution, 17 h
Method: The electrospun meshes were punched into circles of 6.3 mm in diameter, weighed and sterilized with UV irradiation (254 nm, 1 h for each side). Fresh S1P solutions in PBS were carefully loaded onto each mesh (for S1P release study: 5 μL of 0.76-μg/μL solution to achieve 3.8-μg S1P loading per mesh; for tube formation assay: 2 or 10 μL of 0.19-μg/μL solution to achieve 0.38-μg or 1.90-μg S1P loading per mesh). The S1P-loaded meshes were incubated at 37° C. for 1 h and 4° C. for another 4 h before they were air-dried in laminar flow hood overnight.
Human umbilical vein endothelial cells (HUVECs, ATCC, passage 6), were cultured on gelatin-coated plates in M199 medium with 20% fetal bovine serum (FBS), 3 ng/mL bFGF, 5 units/mL heparin and 100 U/100 μg/mL Pen/Strep at 37° C. under 5% CO2. The 96-well culture plate was coated with 50 μL/well growth factor reduced Matrigel and incubated at 37° C. for 0.5 h to allow Matrigel to solidify. Then HUVECs suspended in 100 μL of M199 medium with 0.1% FBS and 100 U/100 μg/mL Pen/Strep were seeded on the Matrigel at 2×10^4 cells/well. After 30 min of cell attachment, PBS solutions of S1P or S1P-loaded meshes were carefully added to each well, followed by continued incubation at 37° C. for 17 h. After removing the meshes and culture media, the HUVECs were fixed with 10% formalin saline solution and imaged with an Axiovert 40 CFL microscope equipped with a QImaging camera at 25× and 100× magnifications. The total tube length in each well (n=3-4) was quantified by ImageJ (NIH).

**Q.** Which total tube length (1-μM, no polymer carrier) does the source give for `CCCCCCCCCCCCC/C=C/[C@@H](O)[C@@H](N)COP(=O)(O)O` [S1P, Sphingosine-1-phosphate] here?
**A.** increased

**Q.** And the total tube length (10-μM, no polymer carrier)?
**A.** proangiogenic effect was compromised

**Q.** What about the total tube length (50-μM, vs. no-S1P control) of the same molecule?
**A.** significantly inhibited tube formation
